The values that follow come from publication PMC6982167, “Development of an Improved Peroxidase-Based High-Throughput Screening for the Optimization of D-Glycerate Dehydratase Activity” (International Journal of Molecular Sciences, 2020).

The target of assay [1] is T1, SsDHAD (dihydroxyacid dehydratase from Sulfolobus solfataricus) (Saccharolobus solfataricus, UniProt Q97UB2).
T1 construct: gene ilvD; full-length synthetic gene in pET24a(+) via NdeI/XhoI, reverse primer carries stop codon (no tag); E. coli BL21(DE3); heat step 70 °C with 2-mercaptoethanol, desalted; iron-sulfur cluster
T1 sequence (Q97UB2 whole entry): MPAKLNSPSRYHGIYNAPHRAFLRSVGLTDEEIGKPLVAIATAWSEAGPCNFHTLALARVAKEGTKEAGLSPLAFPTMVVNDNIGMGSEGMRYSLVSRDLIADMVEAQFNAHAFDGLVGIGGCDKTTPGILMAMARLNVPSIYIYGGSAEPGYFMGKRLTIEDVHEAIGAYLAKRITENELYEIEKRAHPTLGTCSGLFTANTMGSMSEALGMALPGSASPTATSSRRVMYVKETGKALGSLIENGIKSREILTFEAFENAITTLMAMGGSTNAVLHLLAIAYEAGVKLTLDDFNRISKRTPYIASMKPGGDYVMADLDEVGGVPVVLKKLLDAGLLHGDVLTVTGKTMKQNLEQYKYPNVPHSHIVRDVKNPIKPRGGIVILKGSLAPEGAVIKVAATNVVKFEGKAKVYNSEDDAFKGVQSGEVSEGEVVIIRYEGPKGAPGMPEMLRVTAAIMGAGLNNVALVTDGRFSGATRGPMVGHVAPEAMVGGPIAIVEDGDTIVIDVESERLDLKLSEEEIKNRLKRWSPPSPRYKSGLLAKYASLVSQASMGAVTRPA
The experiment in a line: discontinuous dehydration assay, pyruvate by HPLC. In kind it is biochemical. Particulars: supplied as D/L-glycerate 40 mM, pH 7.0, 50 °C, 60 min.

Assay [2] has as its target T1, SsDHAD (dihydroxyacid dehydratase from Sulfolobus solfataricus). As to the kind of experiment: discontinuous dehydration assay, HPLC (2-keto-3-deoxygluconate). The format is biochemical. The note with it: 20 mM D-gluconate, 50 °C, 60 min.

Consider `O=C(O)[C@H](O)CO` [D-glycerate], for which the specific activity entry in assay [1] is on record as “wildtype showed an activity for the dehydration of D-glycerate”. For `O=C(O)[C@H](O)[C@@H](O)[C@H](O)[C@H](O)CO` [D-gluconate], the specific activity entry in assay [2] is “we also tested the conversion of D-gluconate to 2-keto-deoxy gluconate”.
